Measurements: patent publication US20060067938A1, “Methods for the treatment of osteoarthritis and compositions thereof” (priority 2001, published 2006)
Several values for one entry are separate records, joined by “and”; a condition that tells them apart may be missing. Equal entries are not always repeated.

Tests used:
[1] = system: PI3K/PKB pathway (phospho-PKB); assay: Western blot of chondrocyte lysates probed with anti-phospho-PKB (activation of PI3K/PKB pathway by PDGF); type: cell-based; conditions: primary human chondrocytes (non-OA joints), two samples
Experimental: (§1) Induction or Inhibition of PI3KI3K/PKB In Cultured Chondrocytes: In all studies described below chondrocytes were cultured in DMEM medium with or without 10% Fetal Bovine Serum (Invitrogen Life Technologies, Carlsbad, Calif.). Cultured chondrocyte cells are incubated overnight in serum free medium (DMEM) and then treated, as one of the following types of samples, 1) control samples, by incubating the cultures for 24 hour in serum free medium (DMEM) 2) induced samples, by incubating the cultures for 24 hours in serum free medium containing the PI3K/PKB inducer PDGF-BB (Invitrogen—Life Technologies Carlsbad, Calif.) or 3) PI3K/PKB inhibited samples, by pre-incubating the samples for 1 hour with the PI3K/PKB inhibitor LY294002 (Sigma, St. Louis, Mo.) and then incubating the cultures for 24 hours in serum free medium (DMEM) containing the PDGF-BB. FIG. 3 depicts activation of PI3K/PKB expression by PDGF in primary human chondrocytes. FIG. 4 depicts LY249002 (2-(4-morpholinyl)-8-phenyl-4H-1-benzopyran-4-one) inhibition of PDGF activated PI3K/PKB expression in primary human chondrocytes.
Western Blotting—Cells are incubated in serum free medium (DMEM) overnight, and then incubated for 10 minutes in fresh serum free media containing PDGF-BB (50 ng/ml)+/−LY294002 (20 μM). Cells are washed in ice cold PBS, scraped and sonicated in ice cold lysis buffer containing 50 mM Tris pH 7.4, 1% NP-40, 0.25% Na deoxycholate, 150 mM NaCl, 1 mM EGTA, 1 mM PMSF, aprotinin, leupeptin, and pepstatin (all at 1 μg/ml 1 mM Na vanadate, 1 mM NaF, and 1 μM microcystin) (Sigma, St Louis, Mo.). The protein concentration of the lysate is determined using the micro bicinchoninic acid assay (Pierce, Rockford, Ill.) and 20 μg lysate is run per lane for phospho-PKB and phospho-forkhead and 5 μg for anti-His antibody [rabbit anti-phospho-PKB-Ser473 NEB, rabbit anti-phospho-FKHRL1-Thr32 NEB, mouse anti penta-His (Qiagen, Valencia, Calif.)]. Peroxidase labeled secondary antibodies are purchased from Jackson Laboratories (Bar, Harbor, Me.). Blots are visualized with ECL reagent (Amersham, Piscataway, N.J.). […]

[2] = system: Aggrecanase-1 (AGG-1) mRNA; assay: RT-PCR of AGG-1 mRNA in PDGF stimulated primary human chondrocytes; type: cell-based; conditions: primary human chondrocytes (non-OA joints)
Experimental: (§2) cDNA from Isolated Normal and Osteoarthritic Cartilage: A quantity of 1 μg total Isolated Normal or Osteoarthritic Cartilage RNA is treated with DNase (Ambion, Austin, Tex.) in DNase buffer (Ambion, Austin, Tex. in a quantity sufficient to make 10 μl total reaction volume and heated at 37° C. for 30 minutes. The DNase enzyme is inactivated by adding EDTA and heating at 75° C. for 5 min. cDNA is then synthesized from the reaction mixture above using Oligo dT12-18 with the Superscript Preamplification System (Life Technologies, Rockville, Md.). The final reaction volume is then adjusted to 300 μl. Cyclophilin RT-PCR is performed on each sample to allow comparative normalized PI3K, PKB, AGG-1, or COL-3 gene quantitation. Reverse transcriptase polymerase chain reaction (RT-PCR) for cyclophilin is first performed using 3 μl template utilizing the Expand Long PCR System (Roche Biochemicals, Indianapolis, Ind.). Cyclophilin RT-PCR is performed on each sample for 28 cycles to prevent saturation of the PCR products, whereas 35-40 cycles is necessary to detect less abundant genes. Loading dye is added to the 50 μl RT-PCR reaction mix, 10 μl of the dyed RT-PCR reaction mix is loaded onto a 4-20% TBE gradient gel (BioRad, Hercules, Calif.)) and separated at 200V for 45 min. The gel is stained in 1×TBE (Sigma, St. Louis, Mo.) solution containing SYBR green (1:10,000) (Molecular Probes, Eugene, Oreg.) for 1 hour and then scanned on the Storm 860—Blue Fluorescence/Chemifluorescence scanner (Molecular Dynamics, Division of Amersham Pharmacia, Piscataway, N.J.). Individual bands are quantitated using ImageQuant software (Molecular Dynamics, Division of Amersham Pharmacia, Piscataway, N.J.). The fluorescence value determined for each PCR band representing a particular gene is normalized against the fluorescence value for the cyclophilin band in the same donor sample.
(§3) Induction or Inhibition of PI3KI3K/PKB In Cultured Chondrocytes: In all studies described below chondrocytes were cultured in DMEM medium with or without 10% Fetal Bovine Serum (Invitrogen Life Technologies, Carlsbad, Calif.). […]

[3] = system: Collagenase-3 (COL-3) mRNA; assay: RT-PCR of COL-3 mRNA in PDGF stimulated primary human chondrocytes; type: cell-based; conditions: primary human chondrocytes (non-OA joints)
Experimental: as §2, §3

[4] = system: Collagenase-3 protein secretion; assay: ELISA for COL-3 protein secretion in chondrocyte supernatants; type: cell-based, human; conditions: for Collagenase-3 protein in supernatant: 24 hr, control 2491 ± 147
Experimental: ELISA for COL-3—Chondrocyte culture cells are incubated in serum free media (DMEM) overnight, and then incubated for 1 hour in fresh serum free media without or with (50 ng/ml) PDGF-BB (Invitrogen-Life Technologies, Carlsbad, Calif.) is added to each well and incubated for an additional 24 hours. Cell culture supernatants are collected and the levels of COL-3 protein are determined for each treatment using Amersham (Piscataway, N.J.) human collagenase-3 ELISA. FIG. 5 depicts the ELISA of COL-3 protein secretion and inhibition by LY249002. Chondrocyte cells isolated as described above are incubated in serum free media overnight, and then incubated for 1 hour in fresh serum free medium (DMEM) with or without LY294002. Then 50 ng/ml PDGF-BB (Sigma, St. Louis, Mo.) is added to each well and incubated for an additional 24 hours. Chondrocyte cell culture supernatants are collected and the levels of COL-3 protein are determined for each treatment using the commercially available Amersham (Piscataway, N.J.) human collagenase-3 ELISA based assay.

Aggrecanase-1 mRNA = assay: Real time PCR, fold induction of Aggrecanase-1 mRNA in human articular chondrocytes; type: cell-based; conditions: chondrocytes from one OA patient
Experimental: (§4) Chondrocytes were isolated from 2 normal and 2 OA patents. Cells alone or those over expressing the dominant negative form of Akt (retroviral mediated gene transfer) were treated with IL-1 beta, OSM or IL-1 beta+OSM with and without the PI3K inhibitor LY294002. RNA was isolated and the levels of Agg-1, Col-3 mRNA were measured by real time PCR. All treatments in four different donors were done in duplicate.
(§5) Total RNA was isolated from pooled duplicate 96-well plates using Qiagen RNeasy 96 kit (Qiagen, Valencia, Calif.) according to the manufacturer's instructions. The optional on-column Dnase I digestion was employed to eliminate contaminating genomic DNA. First strand cDNA was synthesized using random primers with the High-Capacity cDNA Archive kit (PE Applied Biosystems, Foster City, Calif.) in a 100 ul reaction volume.
(§6) Real time PCR was performed in a 384-well format on the ABI Prism 7900HT Sequence Detection System (Applied Biosystems, Foster City, Calif.) using SYBR Green PCR Master Mix (Applied Biosystems, Foster City, Calif.). The 20 ul reaction contained 5 ul cDNA, 200 nM forward and reverse primers, and SYBR Green PCR Master Mix. The default cycling program (95° C. for 10′ and 40 cycles of 95° C., 15″, 60° C., 1′) was followed by a slow ramping step by which a melting curve is generated to confirm the specificity of the PCR product and the absence of primer dimers.
(§7) Amplification of GAPDH was used to standardize the amount of sample cDNA added to the reaction. Changes in gene expression were calculated using the Comparative Ct method which makes use of a calibrator sample. This is the sample with which all others will be compared and whose value is therefore set to 1. All other values are therefore expressed relative to the calibrator. The retroviral vector containing no cDNA insert represents the calibrator sample. The amount of target, relative to the calibrator is calculated according to the formula 2^□□CT as outlined in ABI User Bulletin #2 (PE Applied Biosystems, Foster City, Calif.).

[5] = system: Collagenase-3 (MMP-13) mRNA; assay: Real time PCR, fold induction of Collagenase-3 (MMP-13) mRNA in human articular chondrocytes; type: cell-based; conditions: chondrocytes from one OA patient
Experimental: as §4, §5, §6, §7

[6] = system: PKB pathway (phospho-FKHRL1); assay: Western blot of chondrocyte lysates probed with anti-phospho-FKHRL1; type: cell-based; conditions: PDGF 50 ng/ml alone; primary human chondrocytes (non-OA joints); two samples
Experimental: as §1, with “FIG. 3 depicts activation of PI3K/PKB expression by PDGF in primary human chondrocytes. FIG. 4 depicts LY249002 (2-(4-morpholinyl)-8-phenyl-4H-1-benzopyran-4-one) inhibition of PDGF activated PI3K/PKB expression in primary human chondrocytes.” left out
Western Blotting—Cells are incubated in serum free medium (DMEM) overnight, and then incubated for 10 minutes in fresh serum free media containing PDGF-BB (50 ng/ml)+/−LY294002 (20 μM). […] The protein concentration of the lysate is determined using the micro bicinchoninic acid assay (Pierce, Rockford, Ill.) and 20 μg lysate is run per lane for phospho-PKB and phospho-forkhead and 5 μg for anti-His antibody [rabbit anti-phospho-PKB-Ser473 NEB, rabbit anti-phospho-FKHRL1-Thr32 NEB, mouse anti penta-His (Qiagen, Valencia, Calif.)]. […]

[7] = PDGF 50 ng/ml + LY294002 20 μM, listed as LY2490002
[8] = inhibitor + IL-1 + Oncostatin M
[9] = inhibitor + IL-1 + Oncostatin M, listed as LY 294002

O=c1cc(N2CCOCC2)oc2c(-c3ccccc3)cccc12 [LY294002, 2-(4-morpholinyl)-8-phenyl-4H-1-benzopyran-4-one]
Anti Phospho-PKB western blot signal ([1]; PDGF 50 ng/ml + LY294002 20 μM): 4706 and 3408 | Anti Phospho-PKB western blot signal [1, 7]: decreases PDGF induced activation of PKB | Aggrecanase-1 gene expression (PCR amplicon gel signal) ([2]; PDGF 50 ng/ml + LY294002 20 μM): 0 | Aggrecanase-1 gene expression (PCR amplicon gel signal) [2, 7]: inhibits the downstream production of mRNA for AGG-1 and COL-3 | Collagenase-3 gene expression (PCR amplicon gel signal) ([3]; PDGF 50 ng/ml + LY294002 20 μM): 302 | Collagenase-3 gene expression (PCR amplicon gel signal) [3, 7]: inhibits the downstream production of mRNA for AGG-1 and COL-3 | Collagenase-3 protein in supernatant ([4]; 1 μM LY294002 in the presence of PDGF 50 ng/ml): 2374 ± 58 pg/mL | Collagenase-3 protein in supernatant ([4]; 5 μM LY294002 in the presence of PDGF 50 ng/ml): 1555 ± 104 pg/mL | Collagenase-3 protein in supernatant ([4]; 20 μM LY294002 in the presence of PDGF 50 ng/ml): 342 ± 8 pg/mL | Secretion of COL-3 protein (in words) ([4]; PDGF stimulated primary human chondrocytes): inhibits secretion of COL-3 protein | Fold Induction of mRNA, Aggrecanase-1 (Aggrecanase-1 mRNA; [8]): blocked | Fold Induction of mRNA, Aggrecanase-1 (Aggrecanase-1 mRNA; [9]): 49 fold | Fold Induction of mRNA, Aggrecanase-1 (Aggrecanase-1 mRNA; inhibitor + IL-1): 22 fold | Fold Induction of mRNA, Aggrecanase-1 (Aggrecanase-1 mRNA; inhibitor + Oncostatin M): 45 fold | Fold Induction of mRNA, Aggrecanase-1 (Aggrecanase-1 mRNA; inhibitor + PDGF): 2 fold | Fold Induction of mRNA, Collagenase-3 [5, 8]: blocked | Fold Induction of mRNA, Collagenase-3 [5, 9]: 19 fold | Fold Induction of mRNA, Collagenase-3 ([5]; inhibitor + IL-1): 5 fold | Fold Induction of mRNA, Collagenase-3 ([5]; inhibitor + Oncostatin M): 10 fold | Fold Induction of mRNA, Collagenase-3 ([5]; inhibitor + PDGF): 2 fold

Interleukin-1 [IL-1]
Fold Induction of mRNA, Aggrecanase-1 (Aggrecanase-1 mRNA; inducer alone, untreated 2): 180 fold | Fold Induction of mRNA, Collagenase-3 ([5]; inducer alone, untreated 1): 150 fold

oncostatin M
Fold Induction of mRNA, Aggrecanase-1 (Aggrecanase-1 mRNA; inducer alone, untreated 2): 221 fold | Fold Induction of mRNA, Collagenase-3 ([5]; inducer alone, untreated 1): 63 fold

platelet-derived growth factor [PDGF]
Anti Phospho-PKB western blot signal ([1]; PDGF 50 ng/ml alone): 17940 and 22369 | Anti-Phospho-FKHRL1 western blot signal [6]: 15838 and 16507 | Aggrecanase-1 gene expression (PCR amplicon gel signal) ([2]; PDGF 50 ng/ml alone): 418 | Collagenase-3 gene expression (PCR amplicon gel signal) ([3]; PDGF 50 ng/ml alone): 1242 | Fold Induction of mRNA, Aggrecanase-1 (Aggrecanase-1 mRNA; inducer alone, untreated 2): 10 fold | Fold Induction of mRNA, Collagenase-3 ([5]; inducer alone, untreated 1): 36 fold
